In assay [1] the test system is HCV genotype 1a (H77 strain) replicon in HUH-7 cells. Put plainly: HCV replicon luciferase reporter assay, genotype 1a. It is filed as cell-based. Conditions: Hepatitis C virus, Huh-7, 72 h, HCV genotype 1a replicon luciferase, 3 days incubation, read-out: LE_1a (EC50, range). In short, it runs like this:
(§1)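 Replicon inhibition for both genotypes was measured as Renilla luciferase signal (EnduRen, 7.5 μM final, 2 h) after 3-day, 37° C exposure of replicon-bearing HUH-7 cells in 4% FCS DMEM, 0.5% DMSO. The 1b construct carries S1179I; the 1a H77 construct carries P1496L and S2204I. Twenty-point, 3-fold dilutions were fitted four-parametrically for EC50, and CC50 was taken from multiplexed Cell Titer-Blue.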
Background: In antiviral work, replicon cells carry a viral genome segment that copies itself.

Assay [2] concerns HCV genotype 1b (Con1) replicon in HUH-7 cells. The assay is described as follows: HCV replicon luciferase reporter assay, genotype 1b. It counts as cell-based. Particulars: Hepatitis C virus, Huh-7, 72 h, HCV genotype 1b replicon luciferase, 3 days incubation, read-out: LE_1b (EC50, range). In short, it runs like this: as §1

The source of these data is patent US9499550B2 (BRISTOL-MYERS SQUIBB COMPANY, priority 2012, dated 2016).

Usually EC50 stands for the concentration needed to bring the measured effect to its halfway point.

The structures appear in SMILES notation.

Regarding `[2H]C([2H])([2H])Oc1cnc(O[C@@H]2C[C@H]3C(=O)N[C@]4(C(=O)NS(=O)(=O)C5(C)CC5)C[C@H]4/C=C\CC[C@H](C)C[C@@H](C)[C@H](NC(=O)OC(C([2H])([2H])[2H])(C([2H])([2H])[2H])C(F)(F)F)C(=O)N3C2)c2ccccc12` [Compound 5104, 1,1,1,3,3,3-hexadeutero-2-(trifluoromethyl)propan-2-yl((2R,6S,7R,9S,13aS,14aR,16aS,Z)-7,9-dimethyl-14a-(((1-methylcyclopropyl)sulfonyl)carbamoyl)-5,16-dioxo-2-((4-(trideuteromethoxy)isoquinolin-1-yl)oxy)-1,2,3,5,6,7,8,9,10,11,13a,14,14a,15,16,16a-hexadecahydrocyclopropa[e]pyrrolo[1,2-a][1,4]diazacyclopentadecin-6-yl)carbamate], the EC50 in assay [1] and in assay [2] was under 5.46 nM in each case.

Regarding `[2H]C([2H])([2H])Oc1cnc(O[C@@H]2C[C@H]3C(=O)N[C@]4(C(=O)NS(=O)(=O)C5(C)CC5)C[C@H]4/C=C\CC[C@@H](C)C[C@@H](C)[C@H](NC(=O)OC(C([2H])([2H])[2H])(C([2H])([2H])[2H])C(F)(F)F)C(=O)N3C2)c2ccccc12` [Compound 5105, 1,1,1,3,3,3-hexadeutero-2-(trifluoromethyl)propan-2-yl((2R,6S,7R,9R,13aS,14aR,16aS,Z)-7,9-dimethyl-14a-(((1-methylcyclopropyl)sulfonyl)carbamoyl)-5,16-dioxo-2-((4-(trideuteromethoxy)isoquinolin-1-yl)oxy)-1,2,3,5,6,7,8,9,10,11,13a,14,14a,15,16,16a-hexadecahydrocyclopropa[e]pyrrolo[1,2-a][1,4]diazacyclopentadecin-6-yl)carbamate], the EC50 in assay [1] and in assay [2] was under 5.46 nM in each case.

For the compound `[2H]C([2H])([2H])Oc1cnc(O[C@@H]2C[C@H]3C(=O)N[C@]4(C(=O)NS(=O)(=O)C5(C)CC5)C[C@H]4/C=C\CC[C@H](C)C[C@@H](C)[C@H](NC(=O)NC(C)(C)C)C(=O)N3C2)c2ccccc12` [Compound 5106, (2R,6S,7R,9S,13aS,14aR,16aS,Z)-6-(3-(tert-butyl)ureido)-7,9-dimethyl-N-((1-methylcyclopropyl)sulfonyl)-5,16-dioxo-2-((4-(trideuteromethoxy)isoquinolin-1-yl)oxy)-1,2,3,5,6,7,8,9,10,11,13a,14,14a,15,16,16a-hexadecahydrocyclopropa[e]pyrrolo[1,2-a][1,4]diazacyclopentadecine-14a-carboxamide], the EC50 in assay [1] and in assay [2] was under 5.46 nM in each case.

Turning to `[2H]C([2H])([2H])Oc1cnc(O[C@@H]2C[C@H]3C(=O)N[C@]4(C(=O)NS(=O)(=O)C5(C)CC5)C[C@H]4/C=C\CC[C@@H](C)C[C@@H](C)[C@H](NC(=O)NC(C)(C)C)C(=O)N3C2)c2ccccc12` [Compound 5107, (2R,6S,7R,9R,13aS,14aR,16aS,Z)-6-(3-(tert-butyl)ureido)-7,9-dimethyl-N-((1-methylcyclopropyl)sulfonyl)-5,16-dioxo-2-((4-(trideuteromethoxy)isoquinolin-1-yl)oxy)-1,2,3,5,6,7,8,9,10,11,13a,14,14a,15,16,16a-hexadecahydrocyclopropa[e]pyrrolo[1,2-a][1,4]diazacyclopentadecine-14a-carboxamide], the EC50 in assay [1] and in assay [2] was under 5.46 nM each time.

For `[2H]C([2H])([2H])Oc1cnc(O[C@@H]2C[C@H]3C(=O)N[C@]4(C(=O)NS(=O)(=O)C5(C)CC5)C[C@H]4/C=C\CC[C@H](C)C[C@@H](C)[C@H](NC(=O)OC(C)(C)C(C)(F)F)C(=O)N3C2)c2ccccc12` [Compound 5108, 3,3-difluoro-2-methylbutan-2-yl((2R,6S,7R,9S,13aS,14aR,16aS,Z)-7,9-dimethyl-14a-(((1-methylcyclopropyl)sulfonyl)carbamoyl)-5,16-dioxo-2-((4-(trideuteromethoxy)isoquinolin-1-yl)oxy)-1,2,3,5,6,7,8,9,10,11,13a,14,14a,15,16,16a-hexadecahydrocyclopropa[e]pyrrolo[1,2-a][1,4]diazacyclopentadecin-6-yl)carbamate], the concentration for a half-maximal effect (EC50) in assay [1] and in assay [2] was under 5.46 nM each time.

Consider `[2H]C([2H])([2H])Oc1cnc(O[C@@H]2C[C@H]3C(=O)N[C@]4(C(=O)NS(=O)(=O)C5(C)CC5)C[C@H]4/C=C\CC[C@@H](C)C[C@@H](C)[C@H](NC(=O)OC(C)(C)C(C)(F)F)C(=O)N3C2)c2ccccc12` [Compound 5109, 3,3-difluoro-2-methylbutan-2-yl((2R,6S,7R,9R,13aS,14aR,16aS,Z)-7,9-dimethyl-14a-(((1-methylcyclopropyl)sulfonyl)carbamoyl)-5,16-dioxo-2-((4-(trideuteromethoxy)isoquinolin-1-yl)oxy)-1,2,3,5,6,7,8,9,10,11,13a,14,14a,15,16,16a-hexadecahydrocyclopropa[e]pyrrolo[1,2-a][1,4]diazacyclopentadecin-6-yl)carbamate], for which the EC50 in assay [1] and in assay [2] was under 5.46 nM in each case.

On to `[2H]C([2H])([2H])Oc1cnc(O[C@@H]2C[C@H]3C(=O)N[C@]4(C(=O)NS(=O)(=O)C5(C)CC5)C[C@H]4CCCC[C@@H](C)C[C@@H](C)[C@H](NC(=O)OC(C)(C)C(F)(F)F)C(=O)N3C2)c2ccccc12` [Compound 5111, 1,1,1-trifluoro-2-methylpropan-2-yl((2R,6S,7R,9R,13aR,14aR,16aS)-7,9-dimethyl-14a-(((1-methylcyclopropyl)sulfonyl)carbamoyl)-5,16-dioxo-2-((4-(trideuteromethoxy)isoquinolin-1-yl)oxy)octadecahydrocyclopropa[e]pyrrolo[1,2-a][1,4]diazacyclopentadecin-6-yl)carbamate], for which the EC50 in assay [1] and in assay [2] was under 5.46 nM in each case.

With `COc1cnc(O[C@@H]2C[C@H]3C(=O)N[C@]4(C(=O)NS(=O)(=O)C5(CF)CC5)C[C@H]4CCCC[C@@H](C)C[C@@H](C)[C@H](NC(=O)OC(C)(C)C)C(=O)N3C2)c2ccccc12` [Compound 5115, tert-butyl ((2R,6S,7R,9R,13aR,14aR,16aS)-14a-(((1-(fluoromethyl)cyclopropyl)sulfonyl)carbamoyl)-2-((4-methoxyisoquinolin-1-yl)oxy)-7,9-dimethyl-5,16-dioxooctadecahydrocyclopropa[e]pyrrolo[1,2-a][1,4]diazacyclopentadecin-6-yl)carbamate], the EC50 in assay [1] and in assay [2] was under 5.46 nM throughout.

Regarding `COc1cnc(O[C@@H]2C[C@H]3C(=O)N[C@]4(C(=O)NS(=O)(=O)C5(CF)CC5)C[C@H]4CCCC[C@H](C)C[C@@H](C)[C@H](NC(=O)OC(C)(C)C(F)(F)F)C(=O)N3C2)c2ccccc12` [Compound 5116, 1,1,1-trifluoro-2-methylpropan-2-yl((2R,6S,7R,9S,13aR,14aR,16aS)-14a-(((1-(fluoromethyl)cyclopropyl)sulfonyl)carbamoyl)-2-((4-methoxyisoquinolin-1-yl)oxy)-7,9-dimethyl-5,16-dioxooctadecahydrocyclopropa[e]pyrrolo[1,2-a][1,4]diazacyclopentadecin-6-yl)carbamate], the EC50 in assay [1] was over 87.4 nM; in assay [2], 4.82 to 103 nM.

Turning to `COc1cnc(O[C@@H]2C[C@H]3C(=O)N[C@]4(C(=O)NS(=O)(=O)C5(CF)CC5)C[C@H]4CCCC[C@@H](C)C[C@@H](C)[C@H](NC(=O)OC(C)(C)C(F)(F)F)C(=O)N3C2)c2ccccc12` [Compound 5117, 1,1,1-trifluoro-2-methylpropan-2-yl((2R,6S,7R,9R,13aR,14aR,16aS)-14a-(((1-(fluoromethyl)cyclopropyl)sulfonyl)carbamoyl)-2-((4-methoxyisoquinolin-1-yl)oxy)-7,9-dimethyl-5,16-dioxooctadecahydrocyclopropa[e]pyrrolo[1,2-a][1,4]diazacyclopentadecin-6-yl)carbamate], the concentration giving a half-maximal response (EC50) in assay [1] and in assay [2] was under 5.46 nM throughout.

As to `COc1cnc(O[C@@H]2C[C@H]3C(=O)N[C@]4(C(=O)NS(=O)(=O)C5(CF)CC5)C[C@H]4CCCC[C@H](C)C[C@@H](C)[C@H](NC(=O)OC(C)(C)C(C)(F)F)C(=O)N3C2)c2ccccc12` [Compound 5118, 3,3-difluoro-2-methylbutan-2-yl ((2R,6S,7R,9S,13 aR,14aR,16aS)-14a-(((1-(fluoromethyl)cyclopropyl)sulfonyl)carbamoyl)-2-((4-methoxyisoquinolin-1-yl)oxy)-7,9-dimethyl-5,16-dioxooctadecahydrocyclopropa[e]pyrrolo[1,2-a][1,4]diazacyclopentadecin-6-yl)carbamate], the EC50 in assay [1] and in assay [2] was 4.82 to 103 nM throughout.

On to `COc1cnc(O[C@@H]2C[C@H]3C(=O)N[C@]4(C(=O)NS(=O)(=O)C5(CF)CC5)C[C@H]4CCCC[C@@H](C)C[C@@H](C)[C@H](NC(=O)OC(C)(C)C(C)(F)F)C(=O)N3C2)c2ccccc12` [Compound 5119, 3,3-difluoro-2-methylbutan-2-yl ((2R,6S,7R,9R,13 aR,14aR,16aS)-14a-(((1-(fluoromethyl)cyclopropyl)sulfonyl)carbamoyl)-2-((4-methoxyisoquinolin-1-yl)oxy)-7,9-dimethyl-5,16-dioxooctadecahydrocyclopropa[e]pyrrolo[1,2-a][1,4]diazacyclopentadecin-6-yl)carbamate], for which the EC50 in assay [1] and in assay [2] was under 5.46 nM in each case.

As to `COc1cnc(O[C@@H]2C[C@H]3C(=O)N[C@]4(C(=O)NS(=O)(=O)C5(CF)CC5)C[C@H]4CCCC[C@@H](C)C[C@@H](C)[C@H](NC(=O)NC(C)(C)C)C(=O)N3C2)c2ccccc12` [Compound 5120, (2R,6S,7R,9R,13aR,14aR,16aS)-6-(3-(tert-butyl)ureido)-N-((1-(fluoromethyl)cyclopropyl)sulfonyl)-2-((4-methoxyisoquinolin-1-yl)oxy)-7,9-dimethyl-5,16-dioxooctadecahydrocyclopropa[e]pyrrolo[1,2-a][1,4]diazacyclopentadecine-14a-carboxamide], the EC50 in assay [1] and in assay [2] was under 5.46 nM throughout.
